Laboratory results taken from patent publication US11918582B2 (RAPT Therapeutics, Inc., priority 2021, dated 2024).
Counter-ions that a name gives are not always drawn.

molecular target: T1, human HPK1 (MAP4K1) (Homo sapiens, UniProt Q92918); test: Biochemical assay for activity against HPK1 (ADP-Glo, MBP substrate); conditions: recombinant human HPK1 kinase domain, 1 nM enzyme, ADP-Glo luminescence
T1 construct: Recombinant human HPK1 kinase domain was obtained from ThermoFisher (Cat. #PV6357) and SignalChem (Cat. #M23-11G); purchased ThermoFisher; SignalChem PV6357; M23-11G
T1 sequence (Q92918 17-274 limits assumed): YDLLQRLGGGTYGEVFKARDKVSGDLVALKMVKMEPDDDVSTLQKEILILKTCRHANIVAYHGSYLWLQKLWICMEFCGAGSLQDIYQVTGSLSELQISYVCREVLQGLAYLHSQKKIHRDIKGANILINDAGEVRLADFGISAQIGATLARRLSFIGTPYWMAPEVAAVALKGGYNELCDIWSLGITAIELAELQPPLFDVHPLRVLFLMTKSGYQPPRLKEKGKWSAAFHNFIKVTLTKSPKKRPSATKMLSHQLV
Outline: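 IC50s come from ADP-Glo luminescence after a 2 h room-temperature reaction phosphorylating MBP in the presence of ATP. Compound was first preincubated 15 min with 1 nM HPK1 kinase domain, human recombinant. Buffer: 50 mM HEPES pH 7.5, 150 mM NaCl, 3 mM TCEP, 10 mM MgCl2, 0.005% Tween-20, 0.01% BSA.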

IC50, < 100 nM:
COc1cc2c(cc1Nc1ncc3cnn(CCNS(C)(=O)=O)c3n1)CN(C)CC2 [Example 88, N-[2-[6-[(6-methoxy-2-methyl-3,4-dihydro-1H-isoquinolin-7-yl)amino]pyrazolo[3,4-d]pyrimidin-1-yl]ethyl]methanesulfonamide]
CCOC(=O)CCCn1ncc2cnc(Nc3ccc4c(c3)CN(C)CC4)nc21 [Example 8, Ethyl 4-(6-((2-methyl-1,2,3,4-tetrahydroisoquinolin-7-yl)amino)-1H-pyrazolo[3,4-d]pyrimidin-1-yl)butanoate]
COc1cc2c(cc1Nc1ncc3cnn(C[C@@H]4C[C@H](F)CN4C(C)=O)c3n1)CN(C)CC2 [Example 146, 1-[(2S,4S)-4-fluoro-2-[[6-[(6-methoxy-2-methyl-3,4-dihydro-1H-isoquinolin-7-yl)amino]pyrazolo[3,4-d]pyrimidin-1-yl]methyl]pyrrolidin-1-yl]ethan-1-one]
COc1cc2c(cc1Nc1ncc3cnn(C[C@H]4CC[C@H](O)CC4)c3n1)CN(C)CC2 [Example 199, (trans)-4-((6-((6-methoxy-2-methyl-1,2,3,4-tetrahydroisoquinolin-7-yl)amino)-1H-pyrazolo[3,4-d]pyrimidin-1-yl)methyl)cyclohexan-1-ol hydrochloride]
COc1cc2c(cc1Nc1ncc3cnn(C[C@@H]4CCCC[C@H]4CO)c3n1)CN(C)CC2 (racemic) [Example 165, [rac-trans-2-[[6-[(6-methoxy-2-methyl-3,4-dihydro-1H-isoquinolin-7-yl)amino]pyrazolo[3,4-d]pyrimidin-1-yl]methyl]cyclohexyl]methanol]
COc1cc2c(cc1Nc1ncc3cnn(C4CCN(S(C)(=O)=O)CC4)c3n1)CN(C)CC2 [Example 105, 6-methoxy-2-methyl-N-(1-(1-(methylsulfonyl)piperidin-4-yl)-1H-pyrazolo[3,4-d]pyrimidin-6-yl)-1,2,3,4-tetrahydroisoquinolin-7-amine]
COc1cc2c(cc1Nc1ncc3cnn(C[C@H](C)NC(C)=O)c3n1)CN(C)CC2 [Example 93, N-[(1S)-2-[6-[(6-methoxy-2-methyl-3,4-dihydro-1H-isoquinolin-7-yl)amino]pyrazolo[3,4-d]pyrimidin-1-yl]-1-methyl-ethyl]acetamide]
COc1cc2c(cc1Nc1ncc3cnn(C[C@@H]4CCCN4C(C)=O)c3n1)CN(C(C)C)CC2 [Example 196, (S)-1-(2-((6-((2-isopropyl-6-methoxy-1,2,3,4-tetrahydroisoquinolin-7-yl)amino)-1H-pyrazolo[3,4-d]pyrimidin-1-yl)methyl)pyrrolidin-1-yl)ethan-1-one hydrochloride]
COc1cc2c(cc1Nc1ncc3cnn([C@H]4CC[C@H](CO)CC4)c3n1)CN(CCO)CC2 [Example 167, 2-[7-[[1-[4-(hydroxymethyl)cyclohexyl]pyrazolo[3,4-d]pyrimidin-6-yl]amino]-6-methoxy-3,4-dihydro-1H-isoquinolin-2-yl]ethanol]
COc1cc2c(cc1Nc1ncc3cnn(C[C@@H]4[C@@H](F)CCN4C(C)=O)c3n1)CN(C)CC2 [Example 213, 1-[(2R,3S)-3-fluoro-2-[[6-[(6-methoxy-2-methyl-3,4-dihydro-1H-isoquinolin-7-yl)amino]pyrazolo[3,4-d]pyrimidin-1-yl]methyl]pyrrolidin-1-yl]ethanone]
COc1cc2c(cc1Nc1ncc3cnn(C[C@@H]4CCCN4S(C)(=O)=O)c3n1)CN(C)CC2 [Example 111, (S)-6-methoxy-2-methyl-N-(1-((1-(methylsulfonyl)228yrrolidine-2-yl)methyl)-1H-pyrazolo[3,4-d]pyrimidin-6-yl)-1,2,3,4-tetrahydroisoquinolin-7-amine]
COc1cc2c(cc1Nc1ncc3cnn(C[C@@H]4CCCCN4C(C)=O)c3n1)CN(C)CC2 [Example 134, (S)-1-(2-((6-((6-methoxy-2-methyl-1,2,3,4-tetrahydroisoquinolin-7-yl)amino)-1H-pyrazolo[3,4-d]pyrimidin-1-yl)methyl)piperidin-1-yl)ethan-1-one]
CCOC(=O)Cn1ncc2cnc(Nc3ccc4c(c3)CN(C)CC4)nc21 [Example 9, Ethyl 2-[6-[(2-methyl-3,4-dihydro-1H-isoquinolin-7-yl)amino]pyrazolo[3,4-d]pyrimidin-1-yl]acetate]
COc1cc2c(cc1Nc1ncc3cnn(C[C@@H]4CCC(C)(C)N4C(C)=O)c3n1)CN(C)CC2 [Example 176, 1-[(5S)-5-[[6-[(6-methoxy-2-methyl-3,4-dihydro-1H-isoquinolin-7-yl)amino]pyrazolo[3,4-d]pyrimidin-1-yl]ymethyl]-2,2-dimethyl-pyrrolidin-1-yl]ethenone]
COc1cc2c(cc1Nc1ncc3cnn(C[C@@H]4[C@@H](C)[C@@H](O)CN4C(C)=O)c3n1)CN(C)CC2 [Example 163, 1-[(2S,3R,4S)-4-hydroxy-2-[[6-[(6-methoxy-2-methyl-3,4-dihydro-1H-isoquinolin-7-yl)amino]pyrazolo[3,4-d]pyrimidin-1-yl]methyl]-3-methyl-pyrrolidin-1-yl]ethenone]
COc1cc2c(cc1Nc1ncc3cnn([C@H]4CC[C@@H](OC)CC4)c3n1)CN(C)CC2 [Example 46, 6-methoxy-N-(1-((1s,4s)-4-methoxycyclohexyl)-1H-pyrazolo[3,4-d]pyrimidin-6-yl)-2-methyl-1,2,3,4-tetrahydroisoquinolin-7-amine]
COc1cc2c(cc1Nc1ncc3cnn(C[C@@H]4CCC[C@@H]4C(=O)O)c3n1)CN(C)CC2 (racemic) [Example 162, Rac-cis-2-[[6-[(6-methoxy-2-methyl-3,4-dihydro-1H-isoquinolin-7-yl)amino]pyrazolo[3,4-d]pyrimidin-1-yl]methyl]cyclopentanecarboxylic Acid]
COc1cc2c(cc1Nc1ncc3c(C)nn([C@@H]4CCC[C@@H](C(N)=O)C4)c3n1)CN(C)CC2 [Example 56, (1R,3R)-3-(6-((6-methoxy-2-methyl-1,2,3,4-tetrahydroisoquinolin-7-yl)amino)-3-methyl-1H-pyrazolo[3,4-d]pyrimidin-1-yl)cyclohexane-1-carboxamide]
COc1cc2c(cc1Nc1ncc3cnn(C4CCCCC4)c3n1)CN(C)CC2 [Example 33, N-(1-cyclohexyl-1H-pyrazolo[3,4-d]pyrimidin-6-yl)-6-methoxy-2-methyl-1,2,3,4-tetrahydroisoquinolin-7-amine]
COc1cc2c(cc1Nc1ncc3cnn([C@H]4C[C@H](CNS(=O)(=O)C5CC5)C4)c3n1)CN(C)CC2 [Example 123, N-[[3-[6-[(6-methoxy-2-methyl-3,4-dihydro-1H-isoquinolin-7-yl)amino]pyrazolo[3,4-d]pyrimidin-1-yl]cyclobutyl]methyl]cyclopropanesulfonamide]
COc1cc2c(cc1Nc1ncc3cnn(C[C@@H]4CCC[C@H]4C(=O)O)c3n1)CN(C)CC2 (racemic) [Example 182, racemic trans-2-((6-((6-methoxy-2-methyl-1,2,3,4-tetrahydroisoquinolin-7-yl)amino)-1H-pyrazolo[3,4-d]pyrimidin-1-yl)methyl)cyclopentane-1-carboxylic Acid]
CC(C)n1nc(C(F)(F)F)c2cnc(Nc3ccc4c(c3)CN(C)CC4)nc21 [Example 6, N-[1-isopropyl-3-(trifluoromethyl)pyrazolo[3,4-d]pyrimidin-6-yl]-2-methyl-3,4-dihydro-1H-isoquinolin-7-amine]
CC(CO)n1ncc2cnc(Nc3ccc4c(c3)CN(C)CC4)nc21 (stereo not drawn) [Example 10, 2-[6-[(2-methyl-3,4-dihydro-1H-isoquinolin-7-yl)amino]pyrazolo[3,4-d]pyrimidin-1-yl]propan-1-ol trifluoroacetate]
COc1cc2c(cc1Nc1ncc3c(C)nn([C@H]4CC[C@@H](CO)CC4)c3n1)CN(C)CC2 [Example 78, cis-[4-[6-[(6-methoxy-2-methyl-3,4-dihydro-1H-isoquinolin-7-yl)amino]-3-methyl-pyrazolo[3,4-d]pyrimidin-1-yl]cyclohexyl]methanol]
COc1cc2c(cc1Nc1ncc3cnn(C4CCC(F)(F)CC4)c3n1)CN(C)CC2 [Example 192, N-[1-(4,4-difluorocyclohexyl)pyrazolo[3,4-d]pyrimidin-6-yl]-6-methoxy-2-methyl-3,4-dihydro-1H-isoquinolin-7-amine Hydrochloride]
COc1cc2c(cc1Nc1ncc3cnn(CCC(N)=O)c3n1)CN(C)CC2 [Example 86, 3-[6-[(6-methoxy-2-methyl-3,4-dihydro-1H-isoquinolin-7-yl)amino]pyrazolo[3,4-d]pyrimidin-1-yl]210ropenamide]
COc1cc2c(cc1Nc1ncc3cnn(C4CCCN(S(C)(=O)=O)C4)c3n1)CN(C)CC2 (stereo not drawn) [Example 108, 6-methoxy-2-methyl-N-(1-(1-(methylsulfonyl)piperidin-3-yl)-1H-pyrazolo[3,4-d]pyrimidin-6-yl)-1,2,3,4-tetrahydroisoquinolin-7-amine]
